Results on 71 compounds are retold here after patent publication US8158621B2, “Methods of treating or preventing autoimmune diseases with 2,4-pyrimidinediamine compounds” (Rigel Pharmaceuticals, Inc., priority 2002, dated 2012).

One assay deals with Human Jurkat T-cells (clone N). Nature of the assay: Jurkat T-cell activation (anti-TCR, CD69 upregulation). Format: cell-based.
Details: not given
A digest of the protocol:
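Jurkat cells in RPMI + 5% FBS preincubated with compound 1 h at 37 °C, then stimulated with anti-TCR C305 at 500 ng/ml for 20 h. CD69 surface expression stained with anti-CD69-APC and read by flow cytometry; IC50 versus solvent-only control.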
What is called IC50 is the concentration that gives 50% inhibition. High values mean weaker potency in that assay, low ones greater potency in that assay. `CNC(=O)COc1cccc(Nc2ncc(F)c(Nc3ccc(OC(F)(F)F)cc3)n2)c1` [Compound R926879] yielded an IC50 of 2.55 µM. Regarding `COC(=O)Cn1ncc2cc(Nc3nc(Nc4ccc(OC(C)C)cc4)ncc3F)ccc21` [Compound R935242], the IC50 is > 10 µM. For the compound `N#CCOc1ccc(Nc2ncc(F)c(Nc3ccc(OCC#N)cc3)n2)cc1` [Compound R945032], the IC50 is 15.2 µM. Consider `CNC(=O)COc1cccc(Nc2ncc(F)c(Nc3ccc(Cl)c(C(F)(F)F)c3)n2)c1` [Compound R926881], for which the IC50 was 11 µM. The same measure, in the same setting: the same measure for `O=C(COc1cccc(Nc2ncc(F)c(Nc3cccc(O)c3)n2)c1)N1CCNCC1` [Compound R926773]: 1.84 µM. The same measure, in the same setting: with `CC(C)Oc1ccc(Nc2nc(Nc3cccc(OCC(=O)O)c3)ncc2F)cc1` [Compound R926731] the figure was > 10 µM; with `COC(=O)Cn1ncc2cc(Nc3nc(Nc4cccc(O)c4)ncc3F)ccc21` [Compound R935250], 6.24 µM; with `CNC(=O)COc1cccc(Nc2ncc(F)c(Nc3cc(C(=O)OC)cc(C(F)(F)F)c3)n2)c1` [Compound R926862], 7.75 µM. With `COC(=O)COc1cccc(Nc2ncc(F)c(Nc3cccc(OCC(=O)OC)c3)n2)c1` [Compound R926255], the IC50 was > 10 µM. `CCOC(=O)COc1cccc(Nc2ncc(F)c(Nc3ccc4c(c3)OCCN4)n2)c1` [Compound R909266] registered an IC50 of 13 µM. As to `CON=C(N)COc1ccc(Nc2ncc(F)c(Nc3ccc(OCC(N)=NOC)cc3)n2)cc1` [Compound R945096], the IC50 came out at 2.8 µM. Same read-out and setting: the same measure for `O=C(COc1cccc(Nc2ncc(F)c(Nc3ccc4c(c3)C(=O)OC4)n2)c1)NCC(O)CO` (centres unmarked) [Compound R940293]: > 10 µM; for `CNC(=O)COc1cc(O)cc(Nc2ncc(F)c(Nc3cccc(O)c3)n2)c1` [Compound R926929]: 4 µM; for `O=C(CNc1cccc(Nc2ncc(F)c(Nc3cccc(NCCO)c3)n2)c1)N1CCOCC1` [Compound R950236]: 9.69 µM. Turning to `Oc1cccc(Nc2ncc(F)c(Nc3ccc(OCCN4CCOCC4)cc3)n2)c1` [Compound R926710], the IC50 is 4.27 µM. `CNc1ncc(F)c(Nc2ccc3c(c2)OCCO3)n1` [Compound R950189] showed an IC50 of 22 µM. Regarding `ON=C(c1ccccc1)c1cccc(Nc2ncc(F)c(Nc3cccc(C(=NO)c4ccccc4)c3)n2)c1` [Compound R950380], the IC50 turned out to be 8.69 µM. Take `CNC(=O)COc1cccc(Nc2ncc(F)c(Nc3cccc(N(C)C)c3)n2)c1` [Compound R950264]: the IC50 worked out at 1.99 µM. For the compound `CNC(=O)CCn1ncc2cc(Nc3ncc(F)c(Nc4ccc5c(c4)OCCO5)n3)ccc21` [Compound R935309], 0.779 µM corresponded to half-maximal inhibition (IC50). On to `COC(=O)c1cc2cc(Nc3ncc(F)c(Nc4ccc(OCc5nc(C)no5)cc4)n3)ccc2o1` [Compound R935146], for which the IC50 was > 10 µM. The same measure, in the same setting: with `Cc1nc(COc2cccc(Nc3ncc(F)c(Nc4cccc(O)c4)n3)c2)no1` [Compound R945127] the figure was 11.1 µM. Consider `CN(C)CCCNC(=O)CNc1cccc(Nc2ncc(F)c(Nc3cccc(NCCO)c3)n2)c1` [Compound R950237], for which half-maximal inhibition (IC50) was put at 12.9 µM. Same read-out and setting: with `CC1(C)Oc2cc(Nc3nc(Cl)ncc3F)cnc2NC1=O` [Compound R940344] the figure was 7.74 µM; with `O=C(CNc1cccc(Nc2ncc(F)c(Nc3ccc4c(c3)OCCO4)n2)c1)N1CCOCC1` [Compound R950193], 2.83 µM. Turning to `CNC(=O)COc1cc(Nc2ncc(F)c(Nc3cccc(O)c3)n2)ccc1OC` [Compound R926829], 3.1 µM corresponded to half-maximal inhibition (IC50). Regarding `C=CCNC(=O)Nc1c(Nc2ccc(OCC(=O)OCC)cc2)nc(Nc2ccc(OCC(=O)OCC)cc2)nc1C(=O)OCC` [Compound R926585], the IC50 was > 10 µM. On to `O=[N+]([O-])c1ccc(NCCO)c(Nc2ncc(F)c(Nc3cc([N+](=O)[O-])ccc3NCCO)n2)c1` [Compound R950150], for which the IC50 is > 10 µM.

Compound `COC(=O)COc1ccc(Nc2cc(Cl)nc(Nc3ccc(OCC(=O)OC)cc3)n2)cc1` [Compound R926411] displayed an IC50 of 16.9 µM. `O=C1Nc2cc(Nc3nc(Cl)ncc3F)ccc2OC1(F)F` [Compound R940342] showed an IC50 of 5.12 µM. For `COC(=O)COc1ccc(Nc2ncc(F)c(Nc3ccc(OCC(=O)OC)cc3)n2)cc1` [Compound R926240], the IC50 was > 10 µM. In turn, `O=C(COc1cccc(Nc2ncc(F)c(Nc3cc(Cl)c(O)c(Cl)c3)n2)c1)N1CCNCC1` [Compound R950188] yielded an IC50 of 17.9 µM. As to `CCOC(=O)c1cnc(Nc2ccc3cn[nH]c3c2)nc1Nc1ccc2cn[nH]c2c1` [Compound R926320], the IC50 was > 10 µM.

In turn, `Cc1nc(COc2cccc(Nc3ncc(F)c(Nc4ccc5c(c4)OCCO5)n3)c2)no1` [Compound R945128] had a half-inhibitory concentration (IC50) of 4.31 µM.

Take `CC(C)Oc1ccc(Nc2nc(Nc3ccc(OCc4nc(-c5ccccc5)no4)cc3)ncc2F)cc1` [Compound R935135]: the IC50 was > 10 µM. As to `N#Cc1cnc(Nc2ccc(OCC(=O)NCC(O)CO)cc2)nc1Nc1cccc(O)c1` (centres unmarked) [Compound R925846], the IC50 is > 10 µM. Same read-out and setting: the same measure for `O=C(c1cc2cc(Nc3ncc(F)c(Nc4cccc(O)c4)n3)ccc2o1)N1CCOCC1` [Compound R926488]: 2.43 µM. Same read-out and setting: the same measure for `OCCn1ncc2ccc(Nc3ncc(F)c(Nc4ccc5c(c4)OCCO5)n3)cc21` [Compound R935248]: 1.9 µM; for `CS(=O)(=O)Nc1ccc(Nc2ncc(F)c(Nc3ccc(NS(C)(=O)=O)cc3)n2)cc1` [Compound R950083]: > 10 µM; for `CNC(=O)COc1cccc(Nc2ncc(F)c(Nc3cccc(CN)c3)n2)c1` [Compound R940309]: > 10 µM.

Consider `CNC(=O)CCn1ncc2ccc(Nc3ncc(F)c(Nc4ccc5oc(C(=O)NC)cc5c4)n3)cc21` [Compound R935297], for which the IC50 was determined as 5.7 µM. Compound `OCCCn1ncc2cc(Nc3ncc(F)c(Nc4ccc5c(c4)OCCO5)n3)ccc21` [Compound R935302] registered an IC50 of 0.8 µM.

In turn, `COC(=O)c1cc(Nc2ncc(F)c(Nc3ccc(OC(C)C)cc3)n2)cn1C` [Compound R935164] yielded an IC50 of 3.32 µM.

Staying with this assay, now noted: Homo sapiens, Jurkat.
As to `COC(=O)c1ccc(Nc2ncc(F)c(Nc3ccc(C(=O)OC)c(O)c3)n2)cc1O` [Compound R945056], the IC50 is > 10 µM. As for `CC(=O)Nc1cccc(Nc2ncc(F)c(Nc3cccc(NC(C)=O)c3)n2)c1` [Compound R926682], 5.95 µM corresponded to half-maximal inhibition (IC50). Take `O=C(O)c1ccc(Nc2ncc(F)c(Nc3ccc(C(=O)O)cc3)n2)cc1` [Compound R945037]: the IC50 was > 10 µM. Regarding `Cc1cc(Nc2ncc(F)c(Nc3cc(C)c(O)cc3C)n2)c(C)cc1O` [Compound R926623], the IC50 is 10 µM. As to `COc1ccc(Nc2ncc(F)c(Nc3ccc(OC)c(O)c3)n2)cc1O` [Compound R926339], the IC50 stood at 2.15 µM. Compound `Fc1cnc(Nc2ccc3cc[nH]c3c2)nc1Nc1ccc2c(c1)OCCO2` [Compound R926750] registered an IC50 of 0.535 µM.

Turning to `Cc1ccc(Nc2ccnc(Nc3ccc(C)c(N)c3)n2)cc1N` [Compound R950130], the IC50 is > 10 µM. For `OCc1cccc(Nc2ncc(F)c(Nc3cccc(CO)c3)n2)c1` [Compound R925757], the IC50 was > 10 µM. Regarding `Oc1cccc(Nc2cc(-c3ccccc3)nc(Nc3cccc(O)c3)n2)c1` [Compound R925812], the IC50 is > 10 µM. Regarding `Cc1ccc(F)c(Nc2ncc(F)c(Nc3ccc4c(c3)OCCO4)n2)c1` [Compound R926897], the IC50 was > 10 µM. The same measure, in the same setting: with `Nc1cc(Nc2ccnc(Nc3cc(N)cc(C(F)(F)F)c3)n2)cc(C(F)(F)F)c1` [Compound R950143] the figure was 4.57 µM; with `COc1ccc(Nc2ncc(F)c(Nc3ccc(OC)cc3)n2)cc1` [Compound R926017], 20.8 µM; with `COc1cc(Nc2ncc(F)c(Nc3ccc4c(c3)OCCO4)n2)cc(OC)c1OC` [Compound R926762], 0.703 µM.

With `Fc1cnc(Nc2ccc(N3CCN(Cc4ccccc4)CC3)cc2)nc1Nc1ccc2c(c1)OCCO2` [Compound R945163], the IC50 was > 10 µM.

`COC(=O)c1cc2cc(Nc3ncc(F)c(Nc4cccc(OC(C)C)c4)n3)ccc2o1` [Compound R926487] returned a half-inhibitory concentration (IC50) of 48.9 µM. `COC(=O)c1cc(Nc2nc(Nc3cccc(O)c3)ncc2Br)cn1C` [Compound R935025] gave an IC50 of 7.95 µM. Turning to `Fc1cnc(Nc2cccc(OC(F)(F)F)c2)nc1Nc1cccc(OC(F)(F)F)c1` [Compound R926038], the IC50 is > 10 µM. The compound `CN1C(=O)COc2ccc(Nc3nc(Nc4cccc(O)c4)ncc3F)cc21` [Compound R908709] had an IC50 of 3.39 µM. Take `Oc1cccc(Nc2nc(Nc3ccc4c(c3)CCO4)ncc2F)c1` [Compound R909250]: the IC50 was > 10 µM. The same measure, in the same setting: with `CCOC(=O)CNc1nc(NCC(=O)OCC)c(N)c(C(=O)OCC)n1` [Compound R925865] the figure was > 10 µM; with `COC(=O)C1Cc2cc(N(c3ccc(C(C)(C)C)cc3)c3ncc(F)c(N)n3)ccc2O1` (centres unmarked) [Compound R926719], > 10 µM. With `Cc1cc(Nc2ncc(F)c(Nc3ccc4c(c3)OCCO4)n2)cc(C(F)(F)F)c1` [Compound R926895], the IC50 is > 10 µM. Regarding `Oc1cccc(Nc2ncc(F)c(NC3c4ccccc4-c4ccccc43)n2)c1` [Compound R935020], the IC50 is > 10 µM. Compound `CCOc1ccc(Nc2ncc(F)c(Nc3ccc(OCC)c(N)c3)n2)cc1N` [Compound R950139] had an IC50 of 5.45 µM. With `Nc1nc(N(c2ccc(CO)cc2)c2ccc3c(c2)OCCO3)ncc1F` [Compound R925760], the 50% inhibitory concentration (IC50) was determined as 20.2 µM. Regarding `CC(C)Oc1cccc(Nc2ncc(F)c(Nc3cccc(N)c3)n2)c1` [Compound R950164], the IC50 was 18.2 µM. With `Fc1cnc(NC(c2ccc(Cl)cc2)c2ccc(Cl)cc2)nc1NC(c1ccc(Cl)cc1)c1ccc(Cl)cc1` [Compound R935006], the half-inhibitory concentration (IC50) was > 10 µM.

`OCC(O)COc1ccc(Nc2ncc(F)c(Nc3cccc(O)c3)n2)cc1` (centres unmarked) [Compound R935180] came in with an IC50 of 3.57 µM. The compound `COc1cc(Nc2ncc(F)c(Nc3cc(OC)c(OC)c(OC)c3)n2)cc(OC)c1OC` [Compound R926688] came in with an IC50 of 3.78 µM.
